System: 935938-334-R-J1-PDC complex spheroid viability
Experiment: Anticancer human tumor 935938-334-R-J1-PDC patient-derived small intestine adenocarcinoma cell line growth inhibition [POLQ]
Conditions: for IC50: curve of first compound; for viability, T/C: stronger effect = lower value
How it was run: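 Patient-derived tumour cells were co-cultured with HUVEC and mesenchymal stem cells as multicellular spheroids at 37 °C. They were treated with POLQ inhibitors (novobiocin, ART-558, RP6685) alone or combined with other agents. Top concentrations were at or near clinical Cmax (otherwise 10 microM; SN-38 at 1 microM), decreasing in half-log steps.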

[1] = second compound 0.0316 µM, first compound 0.0316 µM
[2] = second compound 0.0316 µM, first compound 0.1 µM
[3] = second compound 0.0316 µM, first compound 0.316 µM
[4] = second compound 0.0316 µM, first compound 1 µM
[5] = second compound 0.0316 µM, first compound 3.16 µM
[6] = second compound 0.0316 µM, first compound 10 µM
[7] = second compound 0.1 µM, first compound 0.0316 µM
[8] = second compound 0.1 µM, first compound 0.1 µM
[9] = second compound 0.1 µM, first compound 0.316 µM
[10] = second compound 0.1 µM, first compound 1 µM
[11] = second compound 0.1 µM, first compound 3.16 µM
[12] = second compound 0.1 µM, first compound 10 µM
[13] = second compound 0.316 µM, first compound 0.0316 µM
[14] = second compound 0.316 µM, first compound 0.1 µM
[15] = second compound 0.316 µM, first compound 0.316 µM
[16] = second compound 0.316 µM, first compound 1 µM
[17] = second compound 0.316 µM, first compound 3.16 µM
[18] = second compound 0.316 µM, first compound 10 µM
[19] = second compound 1 µM, first compound 0.0316 µM
[20] = second compound 1 µM, first compound 0.1 µM
[21] = second compound 1 µM, first compound 0.316 µM
[22] = second compound 1 µM, first compound 1 µM
[23] = second compound 1 µM, first compound 3.16 µM
[24] = second compound 1 µM, first compound 10 µM
[25] = second compound 3.16 µM, first compound 0.0316 µM
[26] = second compound 3.16 µM, first compound 0.1 µM
[27] = second compound 3.16 µM, first compound 0.316 µM
[28] = second compound 3.16 µM, first compound 1 µM
[29] = second compound 3.16 µM, first compound 3.16 µM
[30] = second compound 3.16 µM, first compound 10 µM
[31] = second compound 10 µM, first compound 0.0316 µM
[32] = second compound 10 µM, first compound 0.1 µM
[33] = second compound 10 µM, first compound 0.316 µM
[34] = second compound 10 µM, first compound 1 µM
[35] = second compound 10 µM, first compound 3.16 µM
[36] = second compound 10 µM, first compound 10 µM
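Further: spheroids exposed to drugs for seven days before viability read.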
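Wherever viability, T/C is given: 100% = DMSO vehicle control wells.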

C=CC(=O)N1CCN(c2nc(=O)n(-c3c(C)ccnc3C(C)C)c3nc(-c4c(O)cccc4F)c(F)cc23)C(C)C1 (stereo not drawn) + Nc1ccc(C#CCN(C(=O)Cc2ncc(C(F)(F)F)cc2C(F)(F)F)c2ccc(F)cc2)nn1
IC50 (second compound 0.0316 µM): > 10000 nM | IC50 (second compound 0.1 µM): > 10000 nM | IC50 (second compound 0.316 µM): > 10000 nM | IC50 (second compound 1 µM): > 10000 nM | IC50 (second compound 3.16 µM): > 10000 nM | IC50 (second compound 10 µM): > 10000 nM | viability, T/C [1]: 99.1% | viability, T/C [2]: 111% | viability, T/C [3]: 87.1% | viability, T/C [4]: 128% | viability, T/C [5]: 125% | viability, T/C [6]: 112% | viability, T/C [7]: 90.7% | viability, T/C [8]: 99.5% | viability, T/C [9]: 91.2% | viability, T/C [10]: 138% | viability, T/C [11]: 122% | viability, T/C [12]: 107% | viability, T/C [13]: 106% | viability, T/C [14]: 106% | viability, T/C [15]: 87.3% | viability, T/C [16]: 94.8% | viability, T/C [17]: 128% | viability, T/C [18]: 87.4% | viability, T/C [19]: 91.4% | viability, T/C [20]: 96.9% | viability, T/C [21]: 98.4% | viability, T/C [22]: 134% | viability, T/C [23]: 115% | viability, T/C [24]: 138% | viability, T/C [25]: 85.1% | viability, T/C [26]: 89.9% | viability, T/C [27]: 114% | viability, T/C [28]: 95.9% | viability, T/C [29]: 183% | viability, T/C [30]: 113% | viability, T/C [31]: 88.2% | viability, T/C [32]: 95.8% | viability, T/C [33]: 116% | viability, T/C [34]: 89.3% | viability, T/C [35]: 119% | viability, T/C [36]: 138%

CC1COCCN1c1cc(-c2ccnn2C)c2ccnc(-c3ccn[nH]3)c2n1 (stereo not drawn) + Cc1cccc(N(C)C(=O)C2C(O)CCN2c2nc(C)cc(C(F)(F)F)c2C#N)c1
IC50 (second compound 0.0316 µM): 108 nM | IC50 (second compound 0.1 µM): 97.8 nM | IC50 (second compound 0.316 µM): 107 nM | IC50 (second compound 1 µM): 125 nM | IC50 (second compound 3.16 µM): 114 nM | IC50 (second compound 10 µM): 113 nM | viability, T/C [1]: 93.5% | viability, T/C [2]: 52.1% | viability, T/C [3]: 20.2% | viability, T/C [4]: 17.5% | viability, T/C [5]: 20.1% | viability, T/C [6]: 22% | viability, T/C [7]: 105% | viability, T/C [8]: 48.6% | viability, T/C [9]: 29.4% | viability, T/C [10]: 20.7% | viability, T/C [11]: 18.7% | viability, T/C [12]: 23.3% | viability, T/C [13]: 79.2% | viability, T/C [14]: 51.7% | viability, T/C [15]: 23.6% | viability, T/C [16]: 17.7% | viability, T/C [17]: 18.9% | viability, T/C [18]: 20.8% | viability, T/C [19]: 90.2% | viability, T/C [20]: 54.9% | viability, T/C [21]: 29.8% | viability, T/C [22]: 16.4% | viability, T/C [23]: 21.9% | viability, T/C [24]: 22% | viability, T/C [25]: 83.3% | viability, T/C [26]: 53.4% | viability, T/C [27]: 23.5% | viability, T/C [28]: 17.2% | viability, T/C [29]: 18.5% | viability, T/C [30]: 23% | viability, T/C [31]: 86% | viability, T/C [32]: 51.9% | viability, T/C [33]: 32.1% | viability, T/C [34]: 18.4% | viability, T/C [35]: 22.6% | viability, T/C [36]: 22.8%

COc1cccc(OCCCN)c1-c1cc(Nc2cnc(C#N)cn2)n[nH]1 + Nc1ccc(C#CCN(C(=O)Cc2ncc(C(F)(F)F)cc2C(F)(F)F)c2ccc(F)cc2)nn1
IC50 (second compound 0.0316 µM): 36.6 nM | IC50 (second compound 0.1 µM): 61.6 nM | IC50 (second compound 0.316 µM): 31.7 nM | IC50 (second compound 1 µM): 38.8 nM | IC50 (second compound 3.16 µM): 54.9 nM | IC50 (second compound 10 µM): 45.5 nM | viability, T/C (second compound 0.0316 µM, first compound 0.00316 µM): 95.1% | viability, T/C (second compound 0.0316 µM, first compound 0.01 µM): 122% | viability, T/C [1]: 54.7% | viability, T/C [2]: 34.4% | viability, T/C [3]: 10.4% | viability, T/C [4]: 7.92% | viability, T/C (second compound 0.1 µM, first compound 0.00316 µM): 111% | viability, T/C (second compound 0.1 µM, first compound 0.01 µM): 99.2% | viability, T/C [7]: 72.4% | viability, T/C [8]: 35.2% | viability, T/C [9]: 9.41% | viability, T/C [10]: 8.83% | viability, T/C (second compound 0.316 µM, first compound 0.00316 µM): 102% | viability, T/C (second compound 0.316 µM, first compound 0.01 µM): 92.4% | viability, T/C [13]: 44.1% | viability, T/C [14]: 28.3% | viability, T/C [15]: 8.42% | viability, T/C [16]: 8.2% | viability, T/C (second compound 1 µM, first compound 0.00316 µM): 117% | viability, T/C (second compound 1 µM, first compound 0.01 µM): 83.2% | viability, T/C [19]: 62.1% | viability, T/C [20]: 23.2% | viability, T/C [21]: 10.4% | viability, T/C [22]: 7.61% | viability, T/C (second compound 3.16 µM, first compound 0.00316 µM): 93.1% | viability, T/C (second compound 3.16 µM, first compound 0.01 µM): 71% | viability, T/C [25]: 76.5% | viability, T/C [26]: 21.5% | viability, T/C [27]: 10.1% | viability, T/C [28]: 8.73% | viability, T/C (second compound 10 µM, first compound 0.00316 µM): 80.4% | viability, T/C (second compound 10 µM, first compound 0.01 µM): 88.1% | viability, T/C [31]: 66.1% | viability, T/C [32]: 15.1% | viability, T/C [33]: 11.3% | viability, T/C [34]: 12.5%

CC1COCCN1c1cc(C2(S(C)(=N)=O)CC2)nc(-c2ccnc3[nH]ccc23)n1 (stereo not drawn) + Nc1ccc(C#CCN(C(=O)Cc2ncc(C(F)(F)F)cc2C(F)(F)F)c2ccc(F)cc2)nn1
IC50 (second compound 0.0316 µM): 3830 nM | IC50 (second compound 0.1 µM): 2330 nM | IC50 (second compound 0.316 µM): 3220 nM | IC50 (second compound 1 µM): 2480 nM | IC50 (second compound 3.16 µM): 1900 nM | IC50 (second compound 10 µM): 1810 nM | viability, T/C [1]: 105% | viability, T/C [2]: 83.7% | viability, T/C [3]: 97.7% | viability, T/C [4]: 76.1% | viability, T/C [5]: 58.7% | viability, T/C [6]: 15.2% | viability, T/C [7]: 104% | viability, T/C [8]: 117% | viability, T/C [9]: 91.8% | viability, T/C [10]: 91% | viability, T/C [11]: 35% | viability, T/C [12]: 16% | viability, T/C [13]: 83.9% | viability, T/C [14]: 96.8% | viability, T/C [15]: 96.7% | viability, T/C [16]: 82.8% | viability, T/C [17]: 50.9% | viability, T/C [18]: 14.2% | viability, T/C [19]: 118% | viability, T/C [20]: 98.6% | viability, T/C [21]: 94.2% | viability, T/C [22]: 78.2% | viability, T/C [23]: 38.8% | viability, T/C [24]: 22.6% | viability, T/C [25]: 93.5% | viability, T/C [26]: 93.2% | viability, T/C [27]: 108% | viability, T/C [28]: 70.5% | viability, T/C [29]: 34.1% | viability, T/C [30]: 17.9% | viability, T/C [31]: 106% | viability, T/C [32]: 111% | viability, T/C [33]: 137% | viability, T/C [34]: 75.3% | viability, T/C [35]: 36.8% | viability, T/C [36]: 16%

Source: PubChem BioAssay AID1963829 (Molecular Pharmacology Branch, DTP, NCI, 2024)
